Test [1] has as its system whole blood clotting time. Briefly: Prolongation of whole blood clotting time in female rats (Table II). Format: in vivo, Rattus norvegicus, Sprague-Dawley strain. Conditions: 0.06 % in diet. Here is the method: 1-Hydroxy-6-chloro-2-pentafluoroethyl-1H-imidazo(4,5-b)-pyridine was evaluated for prolongation of clotting time. The experiment was conducted in female rats (Rattus norvegicus, Sprague-Dawley strain) using a standard laboratory diet. A group of four control rats was fed the unmodified diet and another group of four rats was fed a treated diet, the standard laboratory diet modified by the incorporation therein of 0.06 percent of the 1-hydroxy-6-chloro-2-pentafluoroethyl-1H-imidazo(4,5-b)pyridine.
On the sixth day of feeding, a blood sample was taken from each rat and was analyzed for whole blood clotting time. The analysis was carried out on a BBL Fibrometer Precision Coagulation Timer, produced by BBL Fibrometer, a Division of Becton, Dickinson and Co., Canada, Ltd.; at Mississauga, Ontario. Two analyses were made of each sample.

Test [2] has as its system rats (Rattus norvegicus). As to the kind of experiment: Rodenticidal effect in rats fed treated diet (Table I). Format: in vivo, Spraque-Dawley albino strain, male. Conditions: per rat. The source says:
A quantity of a standard animal feed of the following composition: Ingredients Percent Lbs./Ton ______________________________________ Corn, Yellow, Ground 42.275 845.5 Oats, Ground 10.0 200.0 Wheat Middlings 10.0 200.0 Soybean Oil Meal, Solvent Extracted Dehulled, 50 % 18.0 360.0 Skimmed Milk, Dried 5.0 100.0 Corn, Distillers Dried Solubles 2.5 50.0 Alfalfa Meal, Dehydrated, 17 % 2.5 50.0 Whey, Whole Dried 1.0 20.0 Fish Meal with Solubles 4.0 80.0 Animal Fat, Beef Tallow 2.0 40.0 Dicalcium Phosphate, Feed Grade 0.5 10.0 Calcium Carbonate 1.0 20.0 Salt 0.3 6.0 Trace Mineral Premix AN-03 0.2 4.0 Vitamin Premix CK-1 0.5 10.0 Vitamin E Premix 0.1 2.0 Methionine Hydroxy Analog (HYDAN) 0.125 2.5 Total 100.00 2000.0 ______________________________________
was divided into two portions. To each portion, there was added an amount of 1-methoxy-6-chloro-2-heptafluoro-n-propyl-1H-imidazo(4,5-b)pyridine, so that one portion contained 800 ppm of the compound, and the other portion contained 200 ppm of the compound.
Other modified feeds were prepared as described above but containing, in lieu of the compound identified above, 1-methoxy-6-bromo-2-heptafluoro-n-propyl-1H-imidazo(4,5-b)pyridine, 6-chloro-2-pentafluoroethyl-1H-imidazo(4,5-)pyridine, or 1-methoxy-6-chloro-2-heptafluoroisopropyl-1H-imidazo(4,5-b)pyridine, in the same or other concentrations,
EXAMPLES 2-28 Representative compounds were evaluated for rodenticidal effect in rats (Rattus norvegicus, Spraque-Dawley albino strain, male, each weighing 50-60 grams). Each compound to be evaluated was formulated as described in Example 1. Control rats were maintained on the standard animal feed described in Example 1. Control rats and rats to be treated were randomly assigned. Each group contained 5 or 6 rats. Feeding of the respective diet was ad libitum. Consumption per rat per day was checked, except on weekend days, and the rats were weighed and usually necropsied at death or termination of the experiment (generally, day 10).
In the evaluation of several of the compounds, the rats were observed closely to determine the day of death. Death occurred on the day marked by "X"; where no "X" is marked, the rat was found dead on the morning following the last indicated feeding. For the remaining compounds, no such close observation was made, and the rat was found dead on the morning following the last indicated feeding. Generally, the rats were not observed or feed consumption determined on weekend days.

For test [3], the system named is rat population (Rattus norwegius). As to the kind of experiment: Field trial against a rat population. The following applies: 100 ppm in feed. Format: in vivo. The method, then: A field trial was conducted to evaluate the efficacy of 1-methoxy-5,6-dichloro-2-heptafluoro-n-propyl-1H-imidazo(4,5-b)-pyridine. The trial was conducted in an area of waste ground covered by grass and brush and recently cut off, by construction activity, from a nearby abandoned stockyard. The trial area indicated the presence of a rat population; this was confirmed by supplying to the area a conventional pelleted hog feed. It was consumed steadily at the rate of 8 lbs./day, corresponding to a population of about 145 rats consuming an average of 25 g. of feed/day. After the conventional feed had been supplied for three weeks, the trial period began. The rat species was believed to be Rattus norwegius, and this was later confirmed upon recovery of the dead animals.
During the trial period, the conventional feed was replaced by an adequate supply of a modified feed, which was identical to the conventional feed except that it contained 100 ppm (0.01 percent) of 1-methoxy-5,6-dichloro-2-heptafluoro-n-propyl-1H-imidazo(4,5-b)pyridine.
Food consumption was estimated visually and was as follows, counting the initiation of the trial period as the first day: […]

Test [4] relates to prothrombin time. Briefly: Prothrombin time in male rats (Tables III and IV). The following applies: group of 5 rats; for Deaths / Range of Prothrombin Time: five days. Type of test: in vivo, rats (Harlan albino strain). Here is the method: Representative compounds were evaluated for prothrombin time in standard laboratory male rats (Harlan albino strain) of weanling age. A standard laboratory animal diet was fed to one group of 5 rats to serve as a control; other groups of 5 rats received modified diets, each diet being the standard laboratory animal diet modified by the incorporation therein of 0.08 percent of the respective compound. Feeding was continued for five days, at which time a blood sample was taken from each rat and analyzed for prothrombin time. The analytical method was that of A. J. Quick, "The Determination of Prothrombin," 190 Am. J. Med. Sci. 501 (1935): and it was performed on the "Electra 600", a machine available from the Medical Laboratory Automation, Inc. The results are reported in Table III.
Additional evaluations of the effect of representative compounds of prothrombin time were conducted. The procedures were the same as those reported in Examples 30-33 except that the concentration of the respective compound was 0.02 percent.

“Also recorded” adds a separate entry of the source.

Experimental findings from patent US3941882A, “Rodenticidal imidazo-pyridines” (priority 1974, dated 1976) are described below.

Take `On1c(C(F)(F)C(F)(F)F)nc2ncc(Cl)cc21` [1-hydroxy-6-chloro-2-pentafluoroethyl-1H-imidazo(4,5-b)pyridine]: the “Death during clotting time study” value in test [1] (per animal) is reported as “died on day 5; also recorded: died on day 6”. Besides, the “Whole Blood Clotting Time” value in test [1] (sixth day of feeding, two analyses per sample) is more than 600 s.

For `FC(F)C(F)(F)c1nc2ncc(Cl)cc2[nH]1` [6-chloro-2-(1,1,2,2-tetrafluoroethyl)-1H-imidazo(4,5-b)pyridine], in test [2] (150 ppm in diet), the Necropsy results is “TH, SIH; also recorded: NH, IH”.

Regarding `COCOn1c(C(F)(F)F)nc2ncc(Cl)cc21` [1-(methoxymethoxy)-6-chloro-2-trifluoromethyl-1H-imidazo(4,5-b)pyridine], the Weight change result in test [2] (700 ppm in diet) is recorded as “+13 grams”.

In the case of `O=C(C=Cc1ccccc1)On1c(C(F)(F)F)nc2ncc(Cl)cc21` [1-cinnamoyloxy-6-chloro-2-trifluoromethyl-1H-imidazo(4,5-b)pyridine], the Necropsy results in test [2] (1000 ppm in diet) is given as “SH, IH”.

Consider `C=CCOn1c(C(F)(F)C(F)F)nc2nc(Cl)c(Cl)cc21` [1-allyloxy-5,6-dichloro-2-(1,1,2,2-tetrafluoroethyl)-1H-imidazo(4,5-b)pyridine], for which, in test [2] (100 ppm in diet), the Weight change was determined as 0 grams.

In the case of `CC(C)(C)C(=O)On1c(C(F)(F)F)nc2ncc(Cl)cc21` [1-pivaloyloxy-6-chloro-2-trifluoromethyl-1H-imidazo(4,5-b)pyridine], the Necropsy results is on record as “TH, IH; also recorded: NH, IH” in test [2] (750 ppm in diet) and “NH, IH” in test [2] (1500 ppm in diet).

As for `FC(F)(F)c1nc2nc(Cl)c(Cl)cc2[nH]1` [5,6-dichloro-2-trifluoromethyl-1H-imidazo(4,5-b)pyridine], the Weight change entry in test [2] (50 ppm in diet) is listed as “+13 grams”.

In test [2] (800 ppm in diet), `COn1c(C(F)(F)F)nc2nc(Cl)ccc21` [1-methoxy-5-chloro-2-trifluoromethyl-1H-imidazo(4,5-b)pyridine] had a Weight change of -11 grams.

`COn1c(C(F)(F)C(F)(F)C(F)(F)F)nc2nc(Cl)c(Cl)cc21` [1-methoxy-5,6-dichloro-2-heptafluoro-n-propyl-1H-imidazo(4,5-b)pyridine]: in test [3], the Bait shyness entry is given as “no bait shyness”, the “Eradication of rodents from the trial area” value is on record as “essentially complete eradication of rodents from the trial area” and the “First day rat corpses were found” value amounted to 4 days. The Necropsy of corpses entry in test [3] (31 of 40 corpses necropsied) was “uniformly showed internal hemorrhage, generally of the intestines”. For the same molecule, the Corpses found in test [3] (total) stood at 40 corpses.

On to `COn1c(C(F)(F)C(F)(F)C(F)(F)F)nc2ncc(Cl)cc21` [1-methoxy-6-chloro-2-heptafluoro-n-propyl-1H-imidazo(4,5-b)pyridine], for which the “Necropsy results (in words)” value in test [2] (200 ppm in diet) and in test [2] (800 ppm in diet) was “bloody nose” in each case.

On to `COn1c(C(F)(F)C(F)(F)C(F)(F)F)nc2ncc(Br)cc21` [1-methoxy-6-bromo-2-heptafluoro-n-propyl-1H-imidazo(4,5-b)pyridine], for which, in test [2] (200 ppm in diet), the Necropsy results is listed as “LH, IH”.

`COn1c(C(F)(F)C(F)(F)F)nc2ncc(Cl)cc21` [1-methoxy-6-chloro-2-pentafluoroethyl-1H-imidazo(4,5-b)pyridine]: in test [4] (0.02 percent in diet), the Deaths entry was “none” and the “Range of Prothrombin Time” value was in the range of 53.1 to 90.5 s. Moreover, in test [4] (0.08 percent in diet), the Deaths was determined as 3, the “Range of Prothrombin Time” value is 180 to 200 s and the “Day(s) of deaths” value fell in the range of 170000 to 350000 s.

As to `CNC(=O)On1c(C(F)(F)F)nc2ncc(Cl)cc21` [1-methylcarbamoyloxy-6-chloro-2-trifluoromethyl-1H-imidazo(4,5-b)pyridine], the Deaths result in test [4] (0.02 percent in diet) and in test [4] (0.08 percent in diet) was “none” each time. The “Range of Prothrombin Time” value in test [4] (0.02 percent in diet) was in the range of 17.6 to 22.1 s; in test [4] (0.08 percent in diet), 39.6 to 98.6 s.

The molecule `COn1c(C(F)(F)F)nc2nc(Cl)c(Cl)cc21` [1-methoxy-5,6-dichloro-2-trifluoromethyl-1H-imidazo(4,5-b)pyridine] showed a Weight change in test [2] (200 ppm in diet) of -12 grams.

Consider `COn1c(C(F)(C(F)(F)F)C(F)(F)F)nc2ncc(Cl)cc21` [1-methoxy-6-chloro-2-heptafluoroisopropyl-1H-imidazo(4,5-b)pyridine], for which the Necropsy results was “TH, SH” in test [2] (200 ppm in diet) and “AH, TH, SH; also recorded: TH, Test.H” in test [2] (300 ppm in diet).

On to `CC(C)On1c(C(F)(F)F)nc2nc(Cl)c(Cl)cc21` [1-isopropoxy-5,6-dichloro-2-trifluoromethyl-1H-imidazo(4,5-b)pyridine], for which the Weight change in test [2] (200 ppm in diet) is on record as 0 grams.

As to `FC(F)(F)c1nc2ncc(Cl)cc2[nH]1` [6-chloro-2-trifluoromethyl-1H-imidazo(4,5-b)pyridine], the Deaths entry in test [4] (0.02 percent in diet) is recorded as “none”. Moreover, in test [4] (0.08 percent in diet), the Deaths was 5 and the “Day(s) of deaths” value was “three”.
